From US8362012B2, “Benzoxazine benzimidazole derivative, a pharmaceutical composition comprising the same, and a use thereof” (Daewoong Pharmaceutical Co., Ltd., priority 2008, dated 2013)

What was measured:
[1] = molecular target: T1, human vanilloid-1 (hVR-1) in hVR-1-HEK293 cell line (Homo sapiens, UniProt Q8NER1); test: Inhibitory effect on calcium influx via a vanilloid receptor (capsaicin-stimulated, Fluo-3/AM); assay type: cell-based; conditions: hVR-1-HEK293 cells, 1 μM of capsaicin, compounds 0.015˜2000 nM; read-out: I.A. (inhibitory activity), IC50 on intracellular calcium influx
T1 construct: expressed in transfected cells; host or cells: HEK293 Tet-on strain, doxycycline-induced
T1 sequence (Q8NER1 whole entry): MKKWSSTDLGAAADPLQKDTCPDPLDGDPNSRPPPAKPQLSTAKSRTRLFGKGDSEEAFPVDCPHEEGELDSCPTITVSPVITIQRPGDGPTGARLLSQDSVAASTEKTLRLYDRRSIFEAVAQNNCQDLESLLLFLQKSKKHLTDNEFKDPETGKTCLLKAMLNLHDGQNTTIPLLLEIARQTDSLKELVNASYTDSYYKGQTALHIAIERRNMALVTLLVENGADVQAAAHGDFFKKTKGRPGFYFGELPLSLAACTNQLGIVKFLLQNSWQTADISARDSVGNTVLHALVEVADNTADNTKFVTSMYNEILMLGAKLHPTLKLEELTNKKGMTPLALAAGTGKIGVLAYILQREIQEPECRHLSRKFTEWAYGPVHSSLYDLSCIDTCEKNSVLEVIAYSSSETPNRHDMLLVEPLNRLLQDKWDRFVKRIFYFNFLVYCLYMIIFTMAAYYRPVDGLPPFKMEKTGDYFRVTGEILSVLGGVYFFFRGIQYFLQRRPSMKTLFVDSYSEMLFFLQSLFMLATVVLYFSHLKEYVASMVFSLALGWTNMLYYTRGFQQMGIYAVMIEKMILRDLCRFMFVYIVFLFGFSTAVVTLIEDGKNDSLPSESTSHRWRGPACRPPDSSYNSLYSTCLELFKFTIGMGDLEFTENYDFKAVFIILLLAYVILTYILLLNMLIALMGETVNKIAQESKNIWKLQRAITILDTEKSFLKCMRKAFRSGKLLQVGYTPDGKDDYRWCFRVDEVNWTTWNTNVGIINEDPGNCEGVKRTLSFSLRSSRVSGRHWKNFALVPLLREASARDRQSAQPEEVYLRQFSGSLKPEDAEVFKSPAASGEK
Procedure: The cell line can modulate the expression of VR-1, depending on whether doxycycline, a derivative of tetracycline, is present or not. […] Specifically, hVR-1-HEK293 cells were cultured in a T75 flask to about 80% confluency, separated from the flask by treating with trypsin solution, and then collected by centrifugation. The cells were suspended in a medium containing 1 μg/mL of doxycycline, and the resulting suspension was diluted to a concentration of 2˜4×10^5 cells/mL […], of the cell suspension was placed in each well of a 96-well black plate. The cells were cultured in 5% CO2 incubator at 37° C. for 2 days, and used for the following procedure. […] The cells prepared in 1) above were cultured at 37° C. for 90 min in a solution containing Fluo-3/AM, a fluorescent dye, as a calcium indicator so that the fluorescent dye was permeated into the cells. […] In order to stimulate calcium influx through a vanilloid receptor, the cells were treated with 1 μM of capsaicin. […] The obtained data were input to the Hill equation represented by the following formula I and the values were analyzed: Intracellular calcium influx= [(fluorescent intensity of experimental group−fluorescent intensity of background)/(fluorescent intensity of positive control−fluorescent intensity of background)]*100 [Formula I] The inhibitory activities were evaluated from the obtained intracellular calcium influx values according to the following criteria.

[2] = test system: ICR male mice; test: Phenyl-p-quinone (PBQ)-induced writhing experiment using mice; assay type: in vivo; conditions: orally administered, PBQ (0.02%) intraperitoneally after 1 hour; for I.A. (inhibitory activity), % inhibition rate of writhing: writhing counted for 10 min
Procedure: In order to evaluate the effect on pain of the compounds prepared in the Examples, behaviors such as twisting or writhing of body resulted from pain were verified by the phenyl-p-quinone (PBQ)-induced writhing experiment using mice. 5 week-old ICR male mice were used as experimental animals and PBQ (0.02%), as a chemical stimulator. The suspensions of 20 mg of the compounds of the present invention and an excipient such as Na—CMC (sodium carboxymethyl cellulose) in 10 mL of saline were used as test compounds. The test compounds were orally administered to the mice and after 1 hour, PBQ was intraperitoneally administrated in an amount of 10 mL per kg of body weight. Also, as a control group, equivalent amounts of BCTC were administered. The writhing number of each mouse was measured for 10 min starting from 5 min after the administration, and the analgesic effect was verified by counting the reduced number compared to the control group administered with only excipient and calculating the % inhibitory rate according to the following Formula 2. % inhibition rate=(writhing # of control group−writhing # of test group)/writhing # of control group×100 [Formula 2]

| Compound | IC50 [1] [nM] | I.A. (inhibitory activity), % inhibition rate of writhing [2] | % inhibition rate of writhing [2] [%] |
| --- | --- | --- | --- |
| FC(F)(F)c1ccc2nc(-c3cccc4c3OCCN4c3ncc(Cl)cc3Cl)[nH]c2c1 [Example 18, 4-(3,5-dichloro-pyridin-2-yl)-8-(6-trifluoromethyl-1H-benzimidazol-2-yl)-3,4-dihydro-2H-benzo[1,4]oxazine] | 20 to 100 | + (<20%) |  |
| FC(F)(F)c1ccc2nc(-c3cccc4c3OCCN4c3ccc(Br)cn3)[nH]c2c1 [Example 19, 4-(5-bromo-pyridin-2-yl)-8-(6-trifluoromethyl-1H-benzimidazol-2-yl)-3,4-dihydro-2H-benzo[1,4]oxazine] | 20 to 100 | ++ (20˜50%) |  |
| FC(F)(F)c1ccc2nc(-c3cccc4c3OCCN4c3ccc(Cl)cn3)[nH]c2c1 [Example 20, 4-(5-chloro-pyridin-2-yl)-8-(6-trifluoromethyl-1H-benzimidazol-2-yl)-3,4-dihydro-2H-benzo[1,4]oxazine] | 20 to 100 | ++ (20˜50%) |  |
| Cc1ccc(N2CCOc3c(-c4nc5ccc(C(F)(F)F)cc5[nH]4)cccc32)nc1 [Example 25, 4-(5-methyl-pyridin-2-yl)-8-(6-trifluoromethyl-1H-benzimidazol-2-yl)-3,4-dihydro-2H-benzo[1,4]oxazine] | 20 to 100 | + (<20%) |  |
| Cc1ccc(N2CCOc3c(-c4nc5cc(Cl)c(Cl)cc5[nH]4)cccc32)nc1 [Example 28, 8-(5,6-dichloro-1H-benzimidazol-2-yl)-4-(5-methyl-pyridin-2-yl)-3,4-dihydro-2H-benzo[1,4]oxazine] | 20 to 100 | + (<20%) |  |
| Cc1ccc(N2CCOc3c(-c4nc5c(Br)cc(C(F)(F)F)cc5[nH]4)cccc32)nc1 [Example 31, 8-(4-bromo-6-trifluoromethyl-1H-benzimidazol-2-yl)-4-(5-methyl-pyridin-2-yl)-3,4-dihydro-2H-benzo[1,4]oxazine] | 20 to 100 | ++ (20˜50%) |  |
| Cc1ccc(N2CCOc3c(-c4nc5c(F)cc(Br)cc5[nH]4)cccc32)nc1 [Example 33, 8-(6-bromo-4-fluoro-1H-benzimidazol-2-yl)-4-(5-methyl-pyridin-2-yl)-3,4-dihydro-2H-benzo[1,4]oxazine] | 20 to 100 | +++ (51-80%) |  |
| Cc1ccc(N2c3cccc(-c4nc5ccc(C(C)(C)C)cc5[nH]4)c3OC[C@@H]2CO)nc1 [Example 34, [(S)-8-(6-tert-butyl-1H-benzimidazol-2-yl)-4-(5-methyl-pyridin-2-yl)-3,4-dihydro-2H-benzo[1,4]oxazin-3-yl]-methanol] | < 20 | + (<20%) |  |
| Cc1ccc(N2c3cccc(-c4nc5ccc(C(F)(F)F)cc5[nH]4)c3OC[C@@H]2CO)nc1 [Example 35, [(S)-4-(5-methyl-pyridin-2-yl)-8-(6-trifluoromethyl-1H-benzimidazol-2-yl)-3,4-dihydro-2H-benzo[1,4]oxazin-3-yl]-methanol] | < 20 | +++ (51-80%) |  |
| C=Cc1ccc(N2c3cccc(-c4nc5ccc(OC)cc5[nH]4)c3OC[C@@H]2CO)nc1 [Example 72, (S)-(8-(6-methoxy-1H-benzo[d]imidazol-2-yl)-4-(5-vinyl-pyridin-2-yl)-3,4-dihydro-2H-benzo[b][1,4]oxazin-3-yl)methanol] | 501 to 1000 |  |  |
| C=Cc1ccc(N2c3cccc(-c4nc5ccc(C#N)cc5[nH]4)c3OC[C@@H]2CO)nc1 [Example 73, (S)-2-(3-(hydroxymethyl)-4-(5-vinyl-pyridin-2-yl)-3,4-dihydro-2H-benzo[b][1,4]oxazin-8-yl)-1H-benzo[d]imidazol-6-carbonitrile] | 101 to 500 |  |  |
| C=Cc1ccc(N2c3cccc(-c4nc5ccc(C)cc5[nH]4)c3OC[C@@H]2CO)nc1 [Example 74, (S)-(8-(6-methyl-1H-benzo[d]imidazol-2-yl)-4-(5-vinyl-pyridin-2-yl)-3,4-dihydro-2H-benzo[b][1,4]oxazin-3-yl)methanol] | 101 to 500 |  |  |
| C=Cc1ccc(N2c3cccc(-c4nc5ccccc5[nH]4)c3OC[C@@H]2CO)nc1 [Example 75, (S)-(8-(1H-benzo[d]imidazol-2-yl)-4-(5-vinyl-pyridin-2-yl)-3,4-dihydro-2H-benzo[b][1,4]oxazin-3-yl)methanol] | 101 to 500 |  |  |
| C=Cc1ccc(N2c3cccc(-c4nc5c(C)cccc5[nH]4)c3OC[C@@H]2CO)nc1 [Example 76, (S)-(8-(4-methyl-1H-benzo[d]imidazol-2-yl)-4-(5-vinyl-pyridin-2-yl)-3,4-dihydro-2H-benzo[b][1,4]oxazin-3-yl)methanol] | 20 to 100 |  |  |
| C=Cc1ccc(N2c3cccc(-c4nc5c(C)c(C)ccc5[nH]4)c3OC[C@@H]2CO)nc1 [Example 77, (S)-(8-(4,5-dimethyl-1H-benzo[d]imidazol-2-yl)-4-(5-vinyl-pyridin-2-yl)-3,4-dihydro-2H-benzo[b][1,4]oxazin-3-yl)methanol] | 20 to 100 |  |  |
| CCc1ccc(N2c3cccc(-c4nc5ccc(C(C)(C)C)cc5[nH]4)c3OC[C@@H]2CO)nc1 [Example 78, [(S)-8-(6-tert-butyl-1H-benzimidazol-2-yl)-4-(5-ethyl-pyridin-2-yl)-3,4-dihydro-2H-benzo[1,4]oxazin-3-yl]-methanol] | 20 to 100 |  |  |
| CCc1ccc(N2c3cccc(-c4nc5ccc(C(F)(F)F)cc5[nH]4)c3OC[C@@H]2CO)nc1 [Example 79, [(S)-4-(5-ethyl-pyridin-2-yl)-8-(6-trifluoromethyl-1H-benzimidazol-2-yl)-3,4-dihydro-2H-benzo[1,4]oxazin-3-yl]-methanol] | 20 to 100 |  |  |
| CCc1ccc(N2c3cccc(-c4nc5cc(F)c(F)cc5[nH]4)c3OC[C@@H]2CO)nc1 [Example 83, [(S)-8-(5,6-difluoro-1H-benzimidazol-2-yl)-4-(5-ethyl-pyridin-2-yl)-3,4-dihydro-2H-benzo[1,4]oxazin-3-yl]-methanol] | 20 to 100 |  |  |
| CCc1ccc(N2c3cccc(-c4nc5cc(F)c(Cl)cc5[nH]4)c3OC[C@@H]2CO)nc1 [Example 84, [(S)-8-(6-chloro-5-fluoro-1H-benzimidazol-2-yl)-4-(5-ethyl-pyridin-2-yl)-3,4-dihydro-2H-benzo[1,4]oxazin-3-yl]-methanol] | 20 to 100 |  |  |
| COC[C@H]1COc2c(-c3nc4c(Br)cc(OC(F)(F)F)cc4[nH]3)cccc2N1c1ccc(C)cn1 [Example 105, (S)-8-(4-bromo-6-trifluoromethoxy-1H-benzimidazol-2-yl)-3-methoxymethyl-4-(5-methyl-pyridin-2-yl)-3,4-dihydro-2H-benzo[1,4]oxazine] | < 20 |  |  |
| COC[C@H]1COc2c(-c3nc4ccc(OC)cc4[nH]3)cccc2N1c1ccc(C)cn1 [Example 106, (S)-8-(6-methoxy-1H-benzo[d]imidazol-2-yl)-3-(methoxymethyl)-4-(5-methyl-pyridin-2-yl)-3,4-dihydro-2H-benzo[b][1,4]oxazine] | 101 to 500 |  |  |
| COC[C@H]1COc2c(-c3nc4c(F)cc(F)cc4[nH]3)cccc2N1c1ccc(C)cn1 [Example 107, (S)-8-(4,6-difluoro-1H-benzo[d]imidazol-2-yl)-3-(methoxymethyl)-4-(5-methyl-pyridin-2-yl)-3,4-dihydro-2H-benzo[b][1,4]oxazine] | 501 to 1000 |  |  |
| COC[C@H]1COc2c(-c3nc4c(C)cccc4[nH]3)cccc2N1c1ccc(C)cn1 [Example 108, (S)-3-(methoxymethyl)-8-(4-methyl-1H-benzo[d]imidazol-2-yl)-4-(5-methyl-pyridin-2-yl)-3,4-dihydro-2H-benzo[b][1,4]oxazine] | 101 to 500 |  |  |
| COC[C@H]1COc2c(-c3nc4cc(C)ccc4[nH]3)cccc2N1c1ccc(C)cn1 [Example 109, (S)-3-(methoxymethyl)-8-(5-methyl-1H-benzo[d]imidazol-2-yl)-4-(5-methyl-pyridin-2-yl)-3,4-dihydro-2H-benzo[b][1,4]oxazine] | 101 to 500 |  |  |
| COC[C@H]1COc2c(-c3nc4ccccc4[nH]3)cccc2N1c1ccc(C)cn1 [Example 110, (S)-8-(1H-benzo[d]imidazol-2-yl)-3-(methoxymethyl)-4-(5-methyl-pyridin-2-yl)-3,4-dihydro-2H-benzo[b][1,4]oxazine] | 101 to 500 |  |  |
| N-(4-tert-butylphenyl)-4-(3-chloropyridin-2-yl)piperazin-1-carboxyamide [BCTC, reference compound] |  | ++ (20˜50%) | 33 |
